Here are results for 1 molecule from patent publication US20090298938A1, “USE OF SEMI SYNTHETIC ANALOGUES OF BOSWELLIC ACIDS FOR ANTICANCER ACTIVITY” (COUNCIL OF SCIENTIFIC & INDUSTRIAL RESEARCH, priority 2008, published 2009).

“Also recorded” adds a separate entry of the source.

What all share (type): cell-based, human
For assay [1], the system named is HL-60 cells. The assay is described as follows: Reactive oxygen species (peroxides), DCFH-DA flow cytometry. The protocol:
FIG. 4. Boswellic acid analogs produce early generation of reactive oxygen species. In order to determine the intracellular content of intracellular peroxides, HL-60 cells in both treated and untreated control groups of 1×10^6 cells were incubated with […] of DCFH-DA for 30 min prior to termination of a 6 hr treatment with the indicated concentrations of compound designated “c” which is the compound of formula 1, wherein R3=COCH2CH2CH3, […], R4+R5=O. Treatment with the compound designated “c” was associated with an increase in DCFH-DA derived fluorescence. The compound of formula 1 where R3=COCH2CH2CH3, […], R4+R5=O was taken as a prototype to investigate the mechanism of cell death mediated by induction of apoptosis. […] At the highest concentration used the peroxide generation was relatively of low order because of ROS associated cell death. BSO was used as positive control. The endogenous generation of peroxides was measured using a non-fluorescent probe DCFH-DA which upon entering the cell is deesterified to DCFH which is oxidized by the reactive oxygen species to a fluorescent product DCF that remains entrapped within the cells offering analysis by flow cytometery [[…] et al, 2006]. […] Thereafter cells were washed and stained for 1 hr with DCFH-DA and analysed on flow cytometer. […]
(In general: Flow cytometry measures light scatter and fluorescence of single cells or particles in a stream.)

Assay [2] concerns HL-60 cells. Briefly: Reduced glutathione content, fluorimetric. To be noted: HL-60, 6 hr. The procedure:
FIG. 7. Modulation of reduced glutathione contents in HL-60 cells by boswellic acid analogs. GSH content was measured in HL-60 cells as described in the Examples section, using treated and untreated groups of about 3×10^6 cells per well and 3 mL of RPMI media. Cells were treated with buthionine sulfoxime (BSO), N-acetyl cysteine (NAC), a compound designated “c” (formula 1 compound wherein R3=COCH2CH2CH3, […] and R4+R5=O), and NAC+the compound “c”. Treatment concentrations were as indicated. […] The depleted GSH stores were restored by an anti-oxidant n-acetyl cysteine. Depletion of GSH content is an important indicator of predisposition conditions leading to cellular injury. Loss of mitochondrial functions as a result of GSH depletion may affect the energy status of the cells and therefore, is critical event in the induction of cell injury. GSH in general offers protection by scavenging reactive oxygen species and electrophiles formed within the cells. The GSH content of cells recovered back to normal or NAC control when cells were treated with sulfhydral groups antioxidant, N-acetyl cysteine (NAC). […] Reduced glutathione content was determined in 3×10^6 HL-60 cells/well/3 mL medium in a 6-well plate after incubation with SS-145 for 6 hr. Cells were washed and the reduced glutathione contents were extracted and determined using a standard fluorimetric method [[…] et al., 1976]. […]

Assay [3] relates to HL-60 cells. The assay is described as follows: Apoptosis induction, annexin V-FITC/PI flow cytometry. To be noted: HL-60, 15 μM, 6 hr. The procedure:
FIG. 2. Comparative efficacy of apoptosis induction: Measurement by flow cytometry. The effects of boswellic acid on the relative efficiency of induction of apoptosis and necrosis in HL-60 cells were analyzed by flow cytometry. Cells were incubated with each analog for 6 hrs and stained with annexin V-FITC labeled. The dot plots are representative of one of the two separate experiments. Values in the lower right quadrant represent the apoptotic population in the UR as post-apoptotic and in the UL as necrotic. Where a=compound of formula 1, R3=COCH2CH2CH3, […], R4=[…], b=compound of formula 1, R3=COCH2CH3R1=H, R4=[…], c=compound of formula 1, R3=COCH2CH2CH3, […], R4+R5=O, d=compound of formula 1, […], R3=COCH2CH3, R4=[…], e=compound of formula 1, R3=COCH2CH2CH3, […], R4=[…], f=β-boswellic acid. Compounds of formula 1 where […], R3=COCH2CH3R3=[…]; R3=COCH2CH2CH3, […], R4=[…] and natural β-boswellic acid produced low level of apoptotic cell population (approx. 10%) compared to compound of formula 1 where R3=COCH2CH2CH3, […], R4=[…] (17%), […], R3=COCH2CH3, R4=[…] (30%) and where R3=COCH2CH2CH3, […], R4+R5=O (23%), although the combined apoptotic and post-apoptotic population was about 32% with the last three analogs. Confirmation that boswellic acid analogs are potent inducers of apoptosis may also be obtained from DNA fragmentation assay. During the early events of apoptosis, phospholipid phosphatidyl serine of plasma membrane is externalized, which has very high affinity for annexinV antibody. Effect of a single concentration (15 μM) of each boswellic acid analogs on the relative efficiency of induction of apoptosis and necrosis in HL-60 cells was analyzed by flow cytometry. Cells were incubated with each analog for 6 hr and stained with Annexin V-FITC/PI. Camptothecin at 4 μM was used as positive control. There after, cells were washed and stained with FITC conjugated annexinV antibody and propidium iodide. The cells (10,000) were analysed by flow cytometery (BD, LSR) using ProQuest software.

For the molecule `CCCC(=O)OC1CCC2(C)C(CCC3(C)C2C(=O)C=C2C4C(C)C(C)CCC4(C)CCC23C)C1(C)C(=O)O` (centres unmarked) [R3=COCH2CH2CH3, R1=H, R4+R5=O], the “peroxide positive cell population” value in assay [1] (HL-60, 50 μg/ml, 6 hr) turned out to be 79%. In addition, the “ROS / peroxide generation (concentration dependence)” value in assay [1] (HL-60, 6 hr, DCFH-DA) is “concentration related increase in ROS generation; also recorded: dose dependent increase”. For the same molecule, in assay [2], the “reduced glutathione (GSH) content” value is “strongly depleted GSH content”. Further, in assay [3], the apoptotic cell population is listed as 23%; the “combined apoptotic and post-apoptotic population” value is “about 32%”.
